Measured values published in patent US20050113456A1, “Method of decreasing fat deposits and body weight in mammals and birds” (priority 2003, published 2005).
pKi: −log10 of the molar value. Where “and” joins values, the source holds several entries; their conditions need not be identical. Identical values can stand only once. Like-named read-outs stand apart in the source and are kept apart here.

Key:
[1] = tested on: Cobb broilers; assay: Safety study in chicken: mortality; type: in vivo; settings: Day 14 to Day 28, Cobb broilers
Description: (§1) Three dietary treatments were used in this clinical study. […] After mixing, the diets were cold pelleted (65° C.).
Feed and water were available ad libitum. […] Mortality was recorded daily.

[2] = Description: Three dietary treatments were used in this clinical study. […] Sixty kilograms of each diet was prepared, and the drugs were mixed into the diets according to the standard operating procedures of the test facility. After mixing, the diets were cold pelleted (65° C.). The diets were analyzed for their concentration of test article immediately after the mixing and at predetermined intervals thereafter.
Day-old male broiler (Cobb) chicken were obtained from a commercial hatchery. The birds were raised in battery brooders housed in an environmentally controlled room and they received a commercial broiler starter diet from day 1 to 12. The birds were transferred to grower cages on day 12. On day 14, birds were weighed individually and birds with relatively high or low body weights were discarded. A total of 72 birds (of uniform body weight) were chosen and distributed into test groups so that average weights per test group were nearly equal. […] The diets were fed from day 14 to 28 and the animals were slaughtered on Day 29. Feed and water were available ad libitum. […] Mortality was recorded daily.

[3] = cited from earlier work; for Reduction of fat pad: Rehfeldt et al. 1997
[4] = Reduction of body fat by the isomers of salbutamol; design: species or system mammals and birds; settings: in vivo
[5] = tested on: smooth muscle; settings: Yamaguchi et al. 1996; cited from earlier work
[6] = Efficacy study in chicken: abdominal fat pad and body weight gain; type: in vivo; settings: for Abdominal fat pad (% BW): day 21 to 42; for Influence on body weight gain (grams): gain during 21 to 42 days of age; for Reduction of fat pads: females; for Decrease of fat pads: males
Description: as §1
The birds were transferred to grower cages on day 15 and a commercial broiler finisher diet (18.9% crude protein) was fed. […] Animals (of uniform body weight) were distributed into groups of 24 birds each. (Additional treatment groups than those shown here were used and dosed differently.) Each of the dietary treatments was then randomly assigned to the treatment groups. The diets were fed from day 21 and the animals were slaughtered on Day 42. Feed and water were available ad libitum throughout the study. Body weights were recorded at weekly intervals.

[7] = molecular target: Beta-3 receptor (Homo sapiens, UniProt P13945); settings: results obtained from BRIDGE PHARMA, Inc.; read-out: Affinity for receptor (Ki) Beta-3; cited from earlier work
Chain of Beta-3 receptor (P13945 whole entry): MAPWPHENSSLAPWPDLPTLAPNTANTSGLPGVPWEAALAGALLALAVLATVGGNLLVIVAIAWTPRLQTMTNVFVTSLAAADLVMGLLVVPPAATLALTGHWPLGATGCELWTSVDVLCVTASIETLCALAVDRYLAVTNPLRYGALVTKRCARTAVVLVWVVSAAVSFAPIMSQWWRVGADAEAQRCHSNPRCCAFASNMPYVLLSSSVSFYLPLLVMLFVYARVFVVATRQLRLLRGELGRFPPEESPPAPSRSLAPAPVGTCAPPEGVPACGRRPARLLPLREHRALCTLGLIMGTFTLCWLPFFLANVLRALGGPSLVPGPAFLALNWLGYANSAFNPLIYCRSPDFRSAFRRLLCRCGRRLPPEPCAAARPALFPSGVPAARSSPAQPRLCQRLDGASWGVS

[8] = Efficacy study in obese young mammals; settings: oral, obese young animals, preliminary results
[9] = Efficacy study in obese adult mammals; settings: oral, obese adult animals, preliminary results
[10] = female broilers, 10 ppm in feed

## CC(C)(C)NCC(O)c1ccc(O)c(CO)c1 (racemic) [RS-salbutamol]
[1]; 10 ppm in feed
  Mortality (out of 24 birds): caused fatalities and 2/24
[2]; racemate-treated animals
  Tissue drug concentration: 61.3 ng/g
[2]; treatment 10 ppm RS-salbutamol in feed, Day 14 to Day 28
  Concentration of total salbutamol in liver: 61.3 ng of drug per g of liver

## CC(C)(C)NCC(O)c1cc(Cl)c(N)c(Cl)c1 (racemic) [clenbuterol, 4-amino-α-[(tert-butylamino)methyl]-3,5-dichlorobenzyl alcohol]
[3]; Dalrymple et al. 1984
  Effect on body weights of broiler chicken: increased
[3]; chicken, Hamano et al. 1998
  Effect on abdominal fat weight: could not find any effect
[3]; female chicken, Dalrymple et al. 1984
  Reduction of abdominal fat pad: 8.5%
[3]; female chicken
  Reduction of fat pad: 8.5%
[3]; male chicken, Dalrymple et al. 1984
  Reduction of abdominal fat pad: did not reduce
[3]; male chicken
  Reduction of fat pad: 6.0%

## CC(C)(C)NC[C@@H](O)c1ccc(O)c(CO)c1 [S-salbutamol]
[4]
  Reduction of fat content in the bodies of mammals and birds: did not reduce fat
[5]
  Smooth muscle hyperreactivity: causes smooth muscle hyperreactivity

## α′[(tert-butylamino) methyl]-4-hydroxy-m-xylene-α,α′-diol [R-salbutamol]
[1]; 5 ppm in feed
  Mortality (out of 24 birds): no fatalities and 0/24
[6]; female broilers, 5 ppm in feed
  Abdominal fat pad (% BW): 1.79 % BW
  Influence on body weight gain (grams): 1646 grams
[6]; [10]
  Abdominal fat pad (% BW): 1.77 % BW
  Influence on body weight gain (grams): 1614 grams
[6]; 5 ppm
  Reduction of fat pads: 19.4%
  Decrease of fat pads: 17.2%
[6]; 10 ppm
  Reduction of fat pads: 20.3%
  Decrease of fat pads: 17.7%
[6]; male broilers, 5 ppm in feed
  Abdominal fat pad (% BW): 1.64 % BW
  Influence on body weight gain (grams): 1886 grams
[6]; male broilers, 10 ppm in feed
  Abdominal fat pad (% BW): 1.63 % BW
  Influence on body weight gain (grams): 1887 grams
[4]
  Reduction of fat content in the bodies of mammals and birds: potently and stereoselectively reducing the fat content
[7]
  pKi: < 5.00
[8]
  Effect on body fat: significantly decreases body fat
[9]
  Effect on body fat: significantly decreases body fat
